Reference: patent US20240350485A1 (TARIS Biomedical LLC, priority 2021, published 2024)

How the values were obtained:
Stability in human urine = format: in vitro ADME; conditions: freshly collected human urine, 37° C.
Description: (§1) At the end of 6-hours post-dialysis incubation, drug was analyzed and the recovery was calculated against the spiked concentrations.

Stability in rat urine = format: in vitro ADME; conditions: freshly collected rat urine, 37° C.
Description: as §1

[1] = Stability in minipig urine; format: in vitro ADME; conditions: freshly collected minipig urine, 37° C.
Description: as §1

[2] = test system: orthotopic UM-UC-1 bladder tumors; assay: Continuous bladder perfusion, orthotopic UM-UC-1 bladder cancer model
Description: Perfusion studies: The bladders of the study animals were cannulated on Day 1 and the animals were allowed to recover for 3 days. On Day 5, UM-UC-1 cells (2×10^6 cells) were injected into the lateral wall of each bladder. […] Based on the in vitro results, target urine concentrations of 0.5, 1.0, and 5.0 μg/mL were used in the perfusion experiments. Body weight, daily urine production, and daily water consumption were recorded. At necropsy, a plasma sample, bladder photographs, and bladder weight measurements were recorded.
The percent reduction in relative tumor weight between the control group and the drug perfusion groups was determined as an initial measure of efficacy. Bladder tissue and tumor samples were also submitted for analysis of FGFR signaling activity by determining the phosphorylated fibroblast growth factor receptor substrate (FRS)2a levels and the pERK to ERK ratio.

in vivo = conditions: female, Sprague-Dawley, rat
Description: (§3) Rat bladders (5 groups of rats, n=3/group) were surgically catheterized under anesthesia and the catheter was externalized, tunneled subcutaneously, and connected to a vascular access harness (VAH) in the neck. […] Plasma and bladder samples were collected at all time points.

[3] = Solubility as a function of pH; format: physicochemical; conditions: normal urine pH range of 5.5 to 7
[4] = In vitro release of prototype permeation systems in simulated urine (Table 5); format: physicochemical; conditions: simulated urine at various pHs
[5] = In vitro release (IVR) of permeation prototypes in simulated urine; format: physicochemical; conditions: highest release rates at pH 5, significantly reduced at pH 8
Description: The drug formats evaluated included erdafitinib free base, erdafitinib free base plus HP-β-CD and erdafitinib salts, e.g. HCl salt.
The pH range for normal human urine is in the 5.5 to 7 range, but some disease states can result in higher urine pH values (pH 8). […] The base material for this tubing could be either AR-75A-B20 or AC-4075A-B20.
Drug and device constituents are described in Tables 11 and 12, respectively. In vitro release (IVR) testing was performed with both prototypes, using simulated urine at 3 different pH ranges as the release media: pH 5, 6.8, and 8 (n=3 systems tested in each media).

[6] = test system: orthotopic RT-112 bladder tumor; assay: Continuous bladder perfusion, RT-112 implanted into the bladder wall
Description: Perfusion studies: The experimental study design was the same as described in Example 11 (FIG. 12), except that the perfusions were continued until the time of necropsy on Day 14.

ERK1/2 phosphorylation = assay: pERK/ERK in orthotopic bladder UM-UC-1 tumors by capillary immunoblotting; format: in vivo, nude rats
Description: The signals for pERK1/2 were divided by the total ERK1/2 signal in the same sample and the mean of the pERK1/2 values for the corresponding vehicle-treated samples was set at a relative value of 1. At each timepoint, the pERK/ERK ratio for each tumor sample was divided by the mean pERK/ERK ratio derived from the corresponding control samples. There was 1 exception, as there were no vehicle-treated samples at the 120-hour timepoint, the pERK/ERK ratios for the erdafitinib-treated samples at the 120-hour timepoint were divided by the mean of the 48-hour vehicle-treated group.

[7] = In vitro protein binding in minipig urine; format: in vitro ADME
Description: (§2) Albuminuria/proteinuria had minimal effect on % free form in urine.
as §1

[8] = urine
Description: On Day −7 a catheter was surgically placed in the bladder of each animal. The distal end of the catheter was anchored to a subcutaneous site and attached to a vascular access port (VAP). The port was secured and the animals were allowed to recover. Each animal was subsequently fitted with a portable infusion pump that was attached to the bladder catheter via the VAP. […] All excreted urine was collected in 24-hour intervals through Day 6 or 8. Blood samples were collected daily on study Days 1 to 8. Bladder tissue samples were collected from each animal at necropsy.

in vitro [9] = conditions: bladder tumor tissue
[10] = In vitro protein binding in human urine; format: in vitro ADME
Description: as §2, §1

[11] = In vitro protein binding in rat urine; format: in vitro ADME
Description: as §2, §1

in vitro [12] = conditions: human, bladder tissue
[13] = rats dosed orally, 2 and 7 hours
Description: Extracellular signal-regulated kinase (ERK)1/2 phosphorylation was assessed as a PD marker for FGFR kinase inhibition in tumors at various time points post administration/installation.

[14] = In vitro permeation screening of device materials; format: physicochemical; design: key: “O” is permeable (suitable for the stripe material); “A” is practically impermeable; “X” is impermeable (suitable for a base material, i.e., the non-stripe portion of a system body)
Description: A number of polymeric materials were tested to determine their suitability as a material of construction of an elastic system body for release of various erdafitinib formulations in a permeation-controlled release system. The materials included silicone, several thermoplastic polyurethane (TPUs) manufactured by Lubrizol Life Science (Bethlehem, PA).
In general, materials that are impermeable to erdafitinib, the API, are suitable for use as the base material in permeation systems. Materials that are permeable to the API are suitable for use as the stripe material in permeation systems. Platinum cured silicone, thermoplastic polyurethanes (TPUs), and ethylene vinyl acetate (EVA) materials were screened (Table 10). The test articles were filled with formulated API (powder or tablets), sealed, placed in foil pouches, and gamma irradiated (nominal 35 kGy). The systems were placed into simulated urine (pH 6.8), stored at 37° C., and sampled periodically. The amount of API in each sample was determined by high-performance liquid chromatography (HPLC) analysis.

[15] = rat, in vivo
Description: as §3

in vitro [16] = conditions: minipig, bladder tissue
in vitro [17] = conditions: rat, bladder tissue

With COc1cc(OC)cc(N(CCNC(C)C)c2ccc3ncc(-c4cnn(C)c4)nc3c2)c1 [Erdafitinib, N-(3,5-dimethoxyphenyl)-N′-(1-methylethyl)-N-[3-(1-methyl-1H-pyrazol-4-yl)quinoxalin-6-yl]ethane-1,2-diamine] the stability in urine (Stability in human urine; 6 hours) was “sufficiently stable”, the recovery at 6 h (Stability in human urine; human urine spiked at 1, 3, and 5 μg/mL) was 89 to 98% and the stability in urine (Stability in rat urine; 6 hours) was “sufficiently stable”. The recovery at 6 h (Stability in rat urine; rat urine spiked at 1, 3, and 5 μg/mL) was 90 to 95%, the stability in urine ([1]; 6 hours) was “sufficiently stable” and the recovery at 6 h ([1]; minipig urine spiked at 1, 3, and 5 μg/mL) was 92 to 93%. For the same compound, the “percentage change in body weight vs vehicle control” value ([2]; 0.5, 1.0, and 5.0 μg/mL treatment groups) was “Statistically non-significant difference”, the “bladder weight vs vehicle control” value ([2]; 0.5, 1.0 and 5 μg/mL nominal urine concentrations) was “significant dose-related decrease” and the cage side observations ([2]; all treatment groups) was “no visible signs of abnormal behavior or clinical symptoms”. For the same compound, the concentration at 96 h (in vivo; C96 h) was 56.9 ng/mL, the concentration at 120 h (in vivo; C120 h) was 10.7 ng/mL and the solubility [3] was “significant pH-dependent solubility”. For the same compound, the “Observations (release profile)” value ([4]; device AR-62A base with HP-60D-35 stripe) was “Release profile shows more pH”, the “Observations (release profile)” value ([4]; device EG-80A base with HP-60D-35 stripe) was “Release profile shows more pH” and the “pH dependency of release by drug format” value [5] was “significant pH dependency”. The “bladder weight vs vehicle control” value ([6]; 1.0 μg/mL perfusate concentration) was “significant bladder weight reduction”, the “bladder weight decrease vs vehicle control” value ([6]; 0.25 and 0.5 μg/mL dose groups) was “not statistically significant” and the “percentage change in body weight vs vehicle control” value ([6]; 0.5, 1.0, and 5.0 μg/mL treatment groups, except Group 4 on Day 11) was “Statistically non-significant difference”. For the same compound, the “body weight loss, maximum mean values” ([6]; erdafitinib-treated group, Day 11) was “up to −3%”, the “ERK1/2 phosphorylation in UM-UC-1 tumors” value (ERK1/2 phosphorylation; 6 mg/kg intravesical and 20 mg/kg oral doses, 2 hours post dosing) was “statistically significant decrease” and the pERK/ERK (ERK1/2 phosphorylation; 2 hours post dose, IVES, 6 mg/kg, relative to vehicle group) was 0.62. For the same compound, the pERK/ERK (ERK1/2 phosphorylation; 2 hours post dose, p.o., 20 mg/kg, relative to vehicle group) was 0.52, the pERK/ERK (ERK1/2 phosphorylation; 7 hours post dose, IVES, 6 mg/kg, relative to vehicle group) was 0.60 and the pERK/ERK (ERK1/2 phosphorylation; 7 hours post dose, p.o., 20 mg/kg, relative to vehicle group) was 0.61. It also gave a pERK/ERK (ERK1/2 phosphorylation; 48 hours post dose, IVES, 6 mg/kg, relative to vehicle group) of 0.71, a pERK/ERK (ERK1/2 phosphorylation; 48 hours post dose, p.o., 20 mg/kg, relative to vehicle group) of 0.76 and a pERK/ERK (ERK1/2 phosphorylation; 120 hours post dose, IVES, 6 mg/kg, relative to 48-hour vehicle group) of 0.98. For the same compound, the pERK/ERK (ERK1/2 phosphorylation; 120 hours post dose, p.o., 20 mg/kg, relative to 48-hour vehicle group) was 1.22, the “Percent erdafitinib free in urine” value [7] was 97% and the “Daily erdafitinib recoveries, of average daily amount administered” value [8] was 15.7%. The fraction unbound (in vitro [9]) was 0.4, the “Percent erdafitinib free in urine” value [10] was 95% and the “Percent erdafitinib free in urine” value [11] was 84%. For the same compound, the fraction unbound (in vitro [12]) was 0.39, the “exposure levels in s.c. tumors lower than in orthotopic tumors” value [13] was “Roughly 2 fold” and the “In Vitro Permeation” value ([14]; material EVA (CoTran 9712)) was “Δ”. The “In Vitro Permeation” value ([14]; material Silicone (MED-4750)) was “X”, the “In Vitro Permeation” value ([14]; material TPU (AC-4075A)) was “X” and the “In Vitro Permeation” value ([14]; material TPU (AR-62A)) was “X”. The “In Vitro Permeation” value ([14]; material TPU (EG-80A)) was “Δ”, the “In Vitro Permeation” value ([14]; material TPU (HP-60D-35)) was “◯” and the “In Vitro Permeation” value ([14]; material TPU (HP-93A-100)) was “◯”. For the same compound, the “In Vitro Permeation” value ([14]; material TPU (PC-3575A)) was “X”, the “In Vitro Permeation” value ([14]; material TPU (TT-1074A)) was “X” and the C96 h [15] was “BQL”. For the same compound, the C120 h [15] was “BQL”, the fraction unbound (in vitro [16]) was 0.79 and the fraction unbound (in vitro [17]) was 0.33.
